“And” between values parts separate entries of the source, which are not always exact repeats. Identical values can stand only once. Like-named read-outs stand apart in the source and are kept apart here.
Key:
PBMCs = assay: Cell viability assay (CCK-8), PBMCs; type: cell-based, human; conditions: Homo sapiens, PBMC, 72 h, PBMCs, read-out: cell vialibity normalized to Vehicle (DMSO)
Procedure: Buffy coats were ordered from anonymous blood donors at […]. […] Cells were seeded in 96-well plates ranging from 2000 to 15,000 cells per well depending on different cell lines and treated with antibiotics in serial dilutions for 72 h (120 h for the preliminary assays) in a humidified incubator (37 °C, 5% CO2) in 100 μl medium (DMEM with 10% FBS, 2.05 mM L-glutamine (Sigma) for Hek293 and Hela; RPMI-1640 with 10% FBS, 2.05 mM L-glutamine (Sigma), and 55 μM 2-ME (Gibco) for Jurkat T cells and PBMCs). Based on preliminary tests, the number of cells per well was optimized to 2000 for Hela and Hek293, 6000 for Jurkat T cells, and 15,000 for PBMCs. The stocks of antibiotics were prepared by dissolving in DMSO. As control, the same amount of DMSO was added to the non-treated groups. Serial drug dilutions were prepared in the corresponding medium to provide a total of 9 concentrations up to 300 μM for tetracyclines and up to 900 μM for additional bacterial protein synthesis inhibitors. After drug treatment, 10% CCK-8 (Cell Counting Kit-8, Sigma Aldrich) (10 μl per well) of the total volume was added to the cells and incubated for 1-4 h depending on cell lines (1 h for Hela and Hek293; 3 h for Jurkat T cells; 4 h for PBMCs) before the evaluation of the effect of antibiotics on cell viability. […] Results were visually confirmed under the light microscope. Each treatment was performed in technical repeats. Dose-response curves were plotted, mean ± SEM was shown, and half maximal inhibitory concentration (IC50) values were calculated in GraphPad Prism.

HeLa cells = assay: Cell viability assay (CCK-8), HeLa cells; type: cell-based; conditions: in % (unit assumed)
Procedure: Cells were seeded in 96-well plates ranging from 2000 to 15,000 cells per well depending on different cell lines and treated with antibiotics in serial dilutions for 72 h (120 h for the preliminary assays) in a humidified incubator (37 °C, 5% CO2) in 100 μl medium (DMEM with 10% FBS, 2.05 mM L-glutamine (Sigma) for Hek293 and Hela; RPMI-1640 with 10% FBS, 2.05 mM L-glutamine (Sigma), and 55 μM 2-ME (Gibco) for Jurkat T cells and PBMCs). Based on preliminary tests, the number of cells per well was optimized to 2000 for Hela and Hek293, 6000 for Jurkat T cells, and 15,000 for PBMCs. The stocks of antibiotics were prepared by dissolving in DMSO. As control, the same amount of DMSO was added to the non-treated groups. Serial drug dilutions were prepared in the corresponding medium to provide a total of 9 concentrations up to 300 μM for tetracyclines and up to 900 μM for additional bacterial protein synthesis inhibitors. After drug treatment, 10% CCK-8 (Cell Counting Kit-8, Sigma Aldrich) (10 μl per well) of the total volume was added to the cells and incubated for 1–4 h depending on cell lines (1 h for Hela and Hek293; 3 h for Jurkat T cells; 4 h for PBMCs) before the evaluation of the effect of antibiotics on cell viability. […] Results were visually confirmed under the light microscope. Each treatment was performed in technical repeats. Dose-response curves were plotted, mean ± SEM was shown, and half maximal inhibitory concentration (IC50) values were calculated in GraphPad Prism.

[1] = test system: mitochondrial translation; assay: 35S metabolic labeling, de novo mitochondrial translation assay in Jurkat T cells; type: cell-based, human; conditions: 5 μM, 18 h of treatment
Procedure: Jurkat T cells were seeded in 6-well plates at a density of 1 million cells/ml and cultured with different concentrations of antibiotics for 18 h in RPMI-1640 medium (with 10% FBS, 2.05 mM L-glutamine (Sigma), and 55 μM 2-ME (Gibco)). After centrifugation, cells were incubated twice for 5 min at 37 °C in Cys-/Met-free medium (DMEM, high glucose, no glutamine, no methionine, no cysteine, supplemented with 10% dialyzed fetal bovine serum, 1× GlutaMax, and sodium pyruvate), followed by 20 min incubation at 37 °C in Cys-/Met-free medium supplemented with 100 µg/ml emetine to inhibit cytosolic translation (only for mitochondrial translation groups). Subsequently, 1 ml Cys-/Met-free medium supplemented with 200 (for cytosolic translation) or 400 µCi (for mitochondrial translation) of EasyTag EXPRESS [^35S] protein labeling mix (methionine and cysteine) (Perkin Elmer) were added to each sample and incubated for 20 min at 37 °C, 5% CO2. Following labeling, cells were washed three times with 1 ml PBS, harvested by centrifugation (400 × g, 10 min, 4 °C), and stored at −20 °C. Cells were lysed by resuspension in 30 µl PBS supplemented with a Complete EDTA-free protease inhibitor cocktail and 50 U Benzonase nuclease (Sigma) and by application of one freeze-thaw cycle. Protein contents were determined by Pierce BCA assay (Thermo Fisher). […]

Jurkat T cells = assay: Cell viability assay (CCK-8), Jurkat T cells; type: cell-based, human; conditions: for cell vialibity normalized to Vehicle (DMSO): in % (unit assumed)
Outline: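 This CCK-8 viability assay used Jurkat T cells seeded at 6000 per well and grown in supplemented RPMI-1640, 100 μl per well. Antibiotic stocks in DMSO were diluted in medium to give 9 concentrations, and untreated wells received matching DMSO. After treatment, cells were incubated with 10% CCK-8 for 3 h. Results were normalized to vehicle, technical repeats were plotted as mean ± SEM, and IC50 values were derived.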

`C[C@H]1c2cccc(O)c2C(=O)C2=C(O)[C@]3(O)C(=O)C(C(N)=O)=C(O)[C@@H](N(C)C)[C@@H]3[C@@H](O)[C@@H]21` [Doxycycline, doxycycline] gave a viability at 0.0457247 µM (PBMCs; dose 0.0457247 μM, Fig. 1A) of 105%, a viability at 0.137174 µM (PBMCs; dose 0.137174 μM, Fig. 1A) of 100% and a viability at 0.411523 µM (PBMCs; Fig. 1A) of 101%. For the same compound, the viability at 0.411523 µM (PBMCs; Fig. 1B) was 103%, the viability at 3.7037 µM (PBMCs; Fig. 1A) was 103% and the viability at 3.7037 µM (PBMCs; Fig. 1B) was 135%. The viability at 33.3333 µM (PBMCs; Fig. 1A) was 89.9%, the viability at 33.3333 µM (PBMCs; Fig. 1B) was 19.7% and the viability at 100 µM (PBMCs; dose 100 μM, Fig. 1A) was 34.7%. The “cell vialibity normalized to Vehicle (DMSO)” value (“cell vialibity normalized” for short) (HeLa cells; Hela 3d, dose 1 μM) was 90.6648 and 96.338 and 89.6672 and 89.6605 and 88.6496, the “cell vialibity normalized” value (HeLa cells; Hela 3d, dose 5 μM) was 84.5992 and 86.2752 and 82.4709 and 76.6381 and 79.4714 and the “cell vialibity normalized” value (HeLa cells; Hela 3d, dose 10 μM) was 79.4248 and 81.7526 and 84.3598 and 79.9369 and 77.0704. The “cell vialibity normalized” value (HeLa cells; Hela 3d, dose 50 μM) was 73.5987 and 75.9863 and 80.8614 and 86.3816 and 72.8139, the “cell vialibity normalized” value (HeLa cells; Hela 3d, dose 100 μM) was 66.9345 and 67.3003 and 64.2675 and 62.1126 and 67.4466 and the “cell vialibity normalized” value (HeLa cells; Hela 5d, dose 1 μM) was 99.6093 and 93.5325 and 94.7977 and 102.368 and 101.019. For the same compound, the “cell vialibity normalized” value (HeLa cells; Hela 5d, dose 5 μM) was 109.557 and 87.6871 and 94.9961 and 97.211 and 96.619, the “cell vialibity normalized” value (HeLa cells; Hela 5d, dose 10 μM) was 94.5723 and 89.5534 and 92.3875 and 106.137 and 99.0323 and the “cell vialibity normalized” value (HeLa cells; Hela 5d, dose 50 μM) was 75.251 and 76.5432 and 75.1938 and 78.2863 and 73.7483. For the same compound, the “cell vialibity normalized” value (HeLa cells; Hela 5d, dose 100 μM) was 73.589 and 66.6556 and 71.8609 and 76.0624 and 69.5949, the “inhibition of mitochondrial translation” value [1] was “weaker inhibition” and the IC50 (Jurkat T cells; Homo sapiens, 120 h, Jurkat T cells, after 5 days, read-out: IC50 (cell survival)) was 6.93 µM. The “cell vialibity normalized” value (Jurkat T cells; Jurkat 3d, dose 1 μM) was 102.781 and 111.139 and 99.3878 and 96.4732 and 90.2582, the “cell vialibity normalized” value (Jurkat T cells; Jurkat 3d, dose 5 μM) was 115.784 and 120.149 and 111.073 and 98.3364 and 101.664 and the “cell vialibity normalized” value (Jurkat T cells; Jurkat 3d, dose 10 μM) was 38.4083 and 33.5773 and 30.3966 and 27.7083 and 36.9178. The “cell vialibity normalized” value (Jurkat T cells; Jurkat 3d, dose 50 μM) was 15.6109 and 16.1964 and 17.4075 and 16.8885 and 14.799, the “cell vialibity normalized” value (Jurkat T cells; Jurkat 3d, dose 100 μM) was 22.9705 and 21.6928 and 21.7195 and 21.0407 and 21.5331 and the “cell vialibity normalized” value (Jurkat T cells; Jurkat 5d, dose 1 μM) was 114.324 and 76.849 and 78.0026 and 73.9947 and 75.2933. For the same compound, the “cell vialibity normalized” value (Jurkat T cells; Jurkat 5d, dose 5 μM) was 77.1127 and 72.762 and 88.7937 and 109.835 and 79.8088, the “cell vialibity normalized” value (Jurkat T cells; Jurkat 5d, dose 10 μM) was 12.7884 and 10.534 and 11.8194 and 11.8853 and 12.2149 and the “cell vialibity normalized” value (Jurkat T cells; Jurkat 5d, dose 50 μM) was 9.394 and 7.97 and 7.877 and 8.029 and 7.9499. The “cell vialibity normalized” value (Jurkat T cells; Jurkat 5d, dose 100 μM) was 12.3797 and 14.0541 and 16.7699 and 13.5333 and 13.3553, the “cell vialibity normalized” value (Jurkat T cells; Jurkat, 72 h, dose 0.0457247 μM, Fig. 1A) was 104.061 and 104.425 and 103.549 and the “cell vialibity normalized” value (Jurkat T cells; Jurkat, 72 h, dose 0.137174 μM, Fig. 1A) was 102.734 and 100.282 and 102.099. The “cell vialibity normalized” value (Jurkat T cells; Jurkat, 72 h, dose 0.411523 μM, Fig. 1A) was 102.372 and 108.487 and 106.988, the “cell vialibity normalized” value (Jurkat T cells; Jurkat, 72 h, dose 1.23457 μM, Fig. 1A) was 101.608 and 103.54 and 101.759 and the “cell vialibity normalized” value (Jurkat T cells; Jurkat, 72 h, dose 3.7037 μM, Fig. 1A) was 101.93 and 103.62 and 98.3642. The “cell vialibity normalized” value (Jurkat T cells; Jurkat, 72 h, dose 11.1111 μM, Fig. 1A) was 87.2939 and 95.2132 and 89.0432, the “cell vialibity normalized” value (Jurkat T cells; Jurkat, 72 h, dose 33.3333 μM, Fig. 1A) was 14.5557 and 15.5672 and 13.1235 and the “cell vialibity normalized” value (Jurkat T cells; Jurkat, 72 h, dose 100 μM, Fig. 1A) was 5.107 and 4.7868 and 3.556.

Source: publication PMC12045974, “T cell toxicity induced by tigecycline binding to the mitochondrial ribosome” (Nature Communications, 2025)
